Patent US4579866A, “Phenylacetamides as anti-allergy, anti-asthma and anti-inflammatory agents” (USV Pharmaceutical Corp., priority 1984, dated 1986)

Assays:
LTC4 = experiment: Antagonism of leukotriene C4 binding (guinea pig peripheral lung strips, contraction); assay type: cell-based; conditions: Cavia porcellus, leukotriene C4 usually 0.2 nM, 37° C., read-out: ANTAGONISM OF LTC4 BINDING, I50
Description: Protocol for Antagonism of Leukotrines C-4 Binding
Peripheral strips of guinea pig lungs are prepared and hung in tissue baths according to the procedure described by Drazen et al. (Proc. Nat'l. Acad. Sci., U.S.A. 77, 4354-4358, 1980). Male guinea pigs (Charles River, 250-400 g) are sacrificed by cervical dislocation and their lungs rapidly removed. The individual lobes are dissected free and rinsed in Assay Buffer (118 mM NaCl, 5.4 mM KCl, 2.5 mM CaCl2, 25 mM […], 1 mM MgSO4, 1 mM NaH2 PO4, 11 mM glucose) which is continuously aerated with 95% oxygen/5% carbon dioxide. After the lobes are extensively rinsed, a strip of lung tissue, approximately 2 mm thick and 5-8 cm long, is cut off the sharpest and most peripheral portion of each lobe. The peripheral edge is cut almost completely around the outside of the lobe so that a U-shaped strip is obtained. These strips are rinsed in Assay Buffer and then connected with surgical silk thread to the support rods of the water jacketed tissue baths (10 ml chambers). The other ends of the strips are connected to Gould UC3 pressure transducers which had been previously calibrated. The tissue baths are aerated with 95% oxygen/5% carbon dioxide and maintained at 37° C. The tension on these strips are adjusted to 500 mg. The tissues are initially washed with fresh buffer every 5-10 minutes for about 30 minutes and thereafter washed with fresh assay buffer at least every 20 minutes.
After the tissue had been repeatedly washed and allowed to equilibrate in the tissue baths, they are challenged with 1 μM histamine to standardize the contractions for each tissue.
Responses of each tissue to a predetermined concentration (usually 0.2 nM) of leukotriene C4 are then obtained. Compounds are then tested for their ability to antagonize to leukotriene C4 immediately upon challenge.
(§1) If the percentage of inhibition exceeds 50%, the compounds are then evaluated in terms of response over a range of concentrations. From a plot of response against concentration, the I50 value is obtained. The I50 value is the concentration at which 50% inhibition is observed.

RAT 5-LIPOXYGENASE = molecular target: T1, RAT 5-LIPOXYGENASE (Rattus norvegicus, UniProt P12527); experiment: Biosynthesis of 5-HETE by rat polymorphonuclear leukocytes in vitro (inhibition of rat 5-lipoxygenase); assay type: cell-based; conditions: rat neutrophils, A23187, 3 minutes at 30° C.; for IC50: concentration at which 50% inhibition is observed, read-out: INHIBITION OF RAT 5-LIPOXYGENASE, I50
T1 construct: A suspension of rat neutrophils in buffer; endogenous in cells; host or cells: rat neutrophils (polymorphonuclear leukocytes)
T1 sequence (P12527 1-673): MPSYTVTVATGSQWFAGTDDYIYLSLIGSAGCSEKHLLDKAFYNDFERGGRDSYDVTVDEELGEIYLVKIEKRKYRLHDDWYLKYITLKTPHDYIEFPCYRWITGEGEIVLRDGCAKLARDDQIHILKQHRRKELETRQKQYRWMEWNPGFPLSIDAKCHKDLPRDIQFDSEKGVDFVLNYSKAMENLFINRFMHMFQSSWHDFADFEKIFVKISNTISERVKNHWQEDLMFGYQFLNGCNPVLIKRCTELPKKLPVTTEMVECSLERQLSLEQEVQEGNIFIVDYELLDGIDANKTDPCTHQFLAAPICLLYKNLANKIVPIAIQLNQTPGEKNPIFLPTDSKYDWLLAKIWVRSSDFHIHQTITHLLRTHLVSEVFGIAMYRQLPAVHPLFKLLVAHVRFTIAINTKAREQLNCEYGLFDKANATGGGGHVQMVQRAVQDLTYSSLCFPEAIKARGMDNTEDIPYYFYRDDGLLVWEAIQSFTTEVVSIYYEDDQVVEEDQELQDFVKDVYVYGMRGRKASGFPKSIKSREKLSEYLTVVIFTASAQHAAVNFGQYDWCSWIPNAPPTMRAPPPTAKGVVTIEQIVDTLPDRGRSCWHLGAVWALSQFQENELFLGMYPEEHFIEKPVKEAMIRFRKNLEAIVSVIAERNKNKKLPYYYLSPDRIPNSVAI
Description: Protocol for the Biosynthesis of 5-HETE by Rat Polymorphonuclear Leukocytes In Vitro
A suspension of rat neutrophils in buffer is incubated for 3 minutes at 30° C. with [^14 C]-arachidonic acid (AA) and calcium ionophore A23187. Citric Acid (2M) NDGA (10 mM) is used to quench the reaction. Following the addition of a trace amount of (^3 H)-5-HETE together with an excess of unlabeled 5-HETE to each tube, the mixture is extracted with chloroform/methanol. The organic layer is washed with dilute acid and an aliquot is transferred to glass tubes and dried. The residue is dissolved in a small volume of chloroform and an aliquot is spotted on silica gel TLC sheets, which are developed with an ethyl acetate/isoctane/water/acetic acid solvent system. The 5-HETE spots are visualized under UV light, cut out and placed in scintillation vials for counting. After adjusting for the extraction efficiency, the amount (pmole) of [^14 C]-5-HETE in each of the tubes is quantitated. The net pmoles of 5-HETE are obtained by subtracting the pmoles of 5-HETE in the tubes containing buffer alone (blank) from the pmoles of 5-HETE in the tubes containing […]. The ability of the test compounds to modulate the activity of this enzyme is determined by a decrease or increase in the net amount of 5-HETE produced.
as §1

SMILES	IC50 (LTC4)	inhibition at 10 µM (RAT 5-LIPOXYGENASE)	IC50 (RAT 5-LIPOXYGENASE)
C=CCOc1ccc(CC(=O)NC(Cc2ccc(Cl)cc2)C(=O)OC)cc1Cl (racemic) [4-Allyloxy-3-chlorophenylacetyl-DL-p-chlorophenylalanine methyl ester]	9 µM	25%	
COC(=O)[C@@H](Cc1ccccc1)NC(=O)Cc1ccc(OCc2ccc3ccccc3n2)c(Cl)c1 [1-Chloro-4-[2-quinolinemethyloxy]-phenylacetyl-D-phenylalanine methyl ester]		50%	
COC(=O)[C@@H](Cc1ccccc1)NC(=O)Cc1ccc(OC)c(Cl)c1 [3-Chloro-4-methoxyphenylacetyl-D-phenylalanine methyl ester]			3.8 µM
C=CCOc1ccc(C(=O)N[C@@H](Cc2ccccc2)C(=O)OC)cc1Cl [4-Allyloxy-3-chlorobenzoyl-L-phenylalanine methyl ester]	15 µM	34%	
C=CCOc1ccc(CC(=O)N(C)[C@H](C)[C@@H](O)c2ccccc2)cc1Cl [4-Allyloxy-3-chlorophenylacetyl-(+)-ephedrine]			15 µM
C=CCOc1ccc(CC(=O)N(C)[C@@H](C)[C@H](O)c2ccccc2)cc1Cl [4-Allyloxy-3-chlorophenylacetyl-(-)-ephedrine]			30 µM
C=CCOc1ccc(CC(=O)N[C@H](Cc2ccccc2)C(=O)OC)cc1Cl [4-Allyloxy-3-chlorophenylacetyl-D-phenylalanine methyl ester]	9 µM		0.7 µM
C=CCOc1ccc(CC(=O)N[C@@H](Cc2ccccc2)C(=O)OC)cc1Cl [4-Allyloxy-3-chlorophenylacetyl-L-phenylalanine methyl ester]	5 µM	27%	
C=CCOc1ccc(CC(=O)N(CC(=O)OCC)Cc2ccccc2)cc1Cl [4-Allyloxy-3-chlorophenylacetyl-N--benzylglycine ethyl ester]	20 µM		8 µM
O=C(Cc1ccc(OCc2ccccc2)c(Cl)c1)N[C@H](Cc1ccccc1)C(=O)O [4-Benzyloxy-3-chlorophenylacetyl-D-phenylalanine]		40%	
COC(=O)[C@H](Cc1ccccc1)NC(=O)Cc1ccc(OCc2ccccc2)cc1 [4-Benzyloxyphenylacetyl-L-phenylalanine methyl ester]	5 µM	29%	
COC(=O)[C@H](Cc1ccccc1)NC(=O)c1ccc(OC2C=CCCC2)cc1 (stereo partly drawn) [4-[2-Cyclohexenyloxy]-benzoyl-L-phenylalanine methyl ester]		33%	
COc1ccc(CC(=O)N(C)CCc2ccccc2)cc1Cl [N--[3-Chloro-4-methoxyphenylacetyl]-N--methyl-2-phenylethylamine]		33%	
C=CCOc1ccc(CC(=O)NCC(C)c2ccccc2)cc1Cl (centres unmarked) [N--[4-Allyloxy-3-chlorophenylacetyl]-1-amino-2-phenylpropane]	2.5 µM	18%	
C=CCOc1ccc(CC(=O)NCC(O)c2ccccc2)cc1Cl (centres unmarked) [N--[4-Allyloxy-3-chlorophenylacetyl]-2-hydroxy-2-phenylethylamine]			20 µM
C=CCOc1ccc(CC(=O)NC(CO)C(O)c2ccccc2)cc1Cl [N--[4-Allyloxy-3-chlorophenylacetyl]-3S-hydroxy-L-phenylalaninol]		36%	
C=CCOc1ccc(CC(=O)N[C@H](CO)Cc2ccccc2)cc1Cl [N--[4-Allyloxy-3-chlorophenylacetyl]-L-phenylalaninol]	3 µM	33%	
C=CCOc1ccc(CC(=O)N(C)CC(O)c2ccccc2)cc1Cl (centres unmarked) [N--[4-Allyloxy-3-chlorophenylacetyl]-N--methyl-2-hydroxy-2-phenylethylamine]	18 µM		1.8 µM
C=CCOc1ccc(CC(=O)N(CCO)Cc2ccccc2)cc1Cl [N--benzyl, N--[2-hydroxyethyl]-3-chloro-4-allyloxyphenylacetamide]		41%	
C=CCOc1ccc(CC(=O)N(C)Cc2ccccc2)cc1Cl [N--benzyl, N--methyl-3-chloro-4-allyloxy-phenylacetamide]			20 µM
